Values of other authors, collected in US4606909A, “Pharmaceutical multiple-units formulation” (priority 1981, dated 1986).

Settings: ambient temperature

| SMILES | parts by volume of water required to dissolve 1 part by weight of the substance |
| --- | --- |
| CC(=O)S[C@@H]1CC2=CC(=O)CC[C@]2(C)[C@H]2CC[C@@]3(C)[C@@H](CC[C@@]34CCC(=O)O4)[C@H]12 [spironolactone] | more than 1000 parts by volume of water |
| C[C@]12CC[C@H]3[C@@H](CCC4=CC(=O)CC[C@@]43C)[C@@H]1CC[C@@H]2O [testosterone] | more than 1000 parts by volume of water |
| CCCCNC(=O)NS(=O)(=O)c1ccc(C)cc1 [tolbutamide] | more than 1000 parts by volume of water |
